Reference: PMC11125197, “Evaluation of Drug Blood-Brain-Barrier Permeability Using a Microfluidic Chip” (Pharmaceutics, 2024)

What was measured:
in vitro = conditions: human
Experimental: (§1) The design and construction of the BBB-on-a-chip were as reported previously. The chip (Emulate, #OCK-12) was composed of two parallel microchannels (top; 1 × 1 mm, bottom; 1 × 0.2 mm) separated by a porous polydimethysiloxane (PDMS) membrane (diameter, 7 μm; spacing, 40 μm; thickness, 50 μm, resulting in 2% porosity over a surface area of 0.171 cm^2 separating the two channels). The membrane was activated according to the manufacturer’s instructions and coated with the mixture of laminin (1 mg/mL), collagen IV (1 mg/mL), and fibronectin (1 mg/mL) in DPBS (Figure 1). Coated chips were incubated at 4 °C overnight, then at 37 °C for 1 h before seeding the cells. hBMEC cells (9 × 10^5 cells/mL) were 20 µL seeded into the bottom channel of the chip. The chip was immediately inverted and incubated at 37 °C for 4 h. After 4 h, hBMECs were prepared as previously described and re-injected into the bottom channel to mimic the vascular structure, as shown in right panel of Figure 2A.
(§2) Ten drugs (Table 1) were selected for BBB permeability analysis (CAF, CBZ, DES, LPM, CET, VIN, LP, NZD, DPZ, and SIM). […] We performed transport experiments for the basolateral-to-apical side and the apical-to-basolateral side.
(§3) Fifteen microliters of blood-and-brain medium was mixed with 135 μL internal standard (IS) solution (5 ng/mL disopyramide in acetonitrile). The mixture was vortexed briefly and centrifuged at 15,000 rpm for 5 min at 4 °C. […] Mobile phase A was 0.1% formic acid in water and mobile phase B was 0.1% formic acid in acetonitrile. Chromatographic separation was performed on a Luna C18 column (100 × 2 mm (i.d.) 3 μm, Phenomenex) with a Security Guard C18 guard column (4 mm × 20 mm (i.d.), Phenomenex) by gradient elution at a flow rate of 0.3 mL/min (Table 2). The mass spectrometer was operated in positive ion mode for all compounds, and the carryover was checked by the injection of a blank in between samples.
(§4) (1) Ctn,channel=Atn−1, channel+C(tn−tn−1),channel·tn−tn−1·channel flow rate/tn·channel flow rate, where Achannel is the drug amount of the channel; tn is time point; C(tn−tn−1),channel is the concentration of drug pooled from tn to tn−1; channel flow rate, fluid flow rate in channel;
(§5) (2) Cchannel=Css, channel · t/CT50, channel+t, where CT50, channel is the time at a half steady state concentration of channel; t, time.
(§6) Kp , the partition coefficient, in the BBB-on-a-chip was calculated by dividing the calculated Css, brain by the Css, blood value of the drug passing through the bottom channel, as shown in Equation (3). (3) Kp=Css, brain/Css, blood
(§7) J represents the rate at which the amount of compound moves from the bottom channel to the top channel, which was calculated by determining the slope of the time-versus-amount curve at 0 h to the point at which a steady state (90% of Tss ) was reached. Papp can be calculated by dividing J by the surface area of the membrane (SA) separating the two channels and the initial concentration in the bottom channel. (4) Papp=J/MW/SA·C0,blood ,J=dAbrain/dt, where MW is molecular weight of each drug.

[1] = test system: human BBB-on-a-chip (hBMEC, HBVP, NHA); experiment: in vitro
Experimental: as §1, §2, §3, §4, §5, §6, §7

[2] = test system: human BBB-on-a-chip (hBMEC, HBVP, NHA); experiment: BBB-on-a-chip permeability, basolateral to apical (brain to blood channel), LC-MS/MS; assay type: in vitro ADME; conditions: 1 μM in top channel
Source text: Css, channel , the concentration in the channel at the steady state, was estimated using a simple Emax model Equation (2) with time (h) on the x-axis and concentration (ng/mL) on the y-axis.

[3] = 1 μM dosed, simple Emax model fit
[4] = 1 μM dosed, simple Emax model fit, sampling 1, 4, 9, 24 h
[5] = time to reach predicted 90% Css

SMILES	Kp (in vitro)	Cplateau,brain (concentration at plateau time of brain channel) ([1]; human) [ng/mL]	Css,blood (steady state concentration of blood channel) ([1]; human) [ng/mL]	Css,brain (steady state concentration of brain channel) ([1]; human) [ng/mL]	Papp at 24 h, 1 μM (in vitro) [×10⁻⁶ cm/s]	CT50,brain (time at half steady state concentration of brain channel) [1, 3] [h]	CT50,blood (time at half steady state concentration of blood channel) [1, 4] [h]	tplateau,brain (plateau time for brain channel) [1, 5] [h]	other results
Cn1c(=O)c2c(ncn2C)n(C)c1=O [Caffeine, caffeine]	0.435	44.8098	114.47	49.79	–	–	–	–	Papp (in vitro): 30 ×10⁻⁶ cm/s; Plateau reached in brain channel during the observed time [1]: reached plateau; CT50,blood (time at half steady state concentration of blood channel) ([1]; human): 2.91 h; CT50,brain (time at half steady state concentration of brain channel) ([1]; human): 2.39 h; tplateau,brain (plateau time for brain channel) ([1]; human): 21.52 h
CNCCCN1c2ccccc2CCc2ccccc21 [Desipramine, desipramine]	–	–	–	–	32.5	34.47	57.44	310.22	Css,blood (steady state concentration of blood channel) [1, 3]: 234.83 ng/mL; Css,brain (steady state concentration of brain channel) [1, 3]: 73.93 ng/mL; Cplateau,brain (concentration at plateau time of brain channel) ([1]; predicted 90% Css): 66.5383 ng/mL
Nc1nc(OC(c2ccc(-c3cccc(F)c3)cc2)C(F)(F)F)cc(-c2ccc(C[C@H](N)C(=O)O)cc2)n1 (some centres unmarked) [LP533401]	–	–	–	–	–	0.16	6.80	1.42	BBB permeability in words (apical to basolateral) [1]: low permeability; Papp (apparent permeability) [1]: 2.1693 10^−6cm/s; Css,blood (steady state concentration of blood channel) [1, 3]: 573.66 ng/mL; Css,brain (steady state concentration of brain channel) [1, 3]: 9.77 ng/mL; Kp (Brain/Blood), partition coefficient ([1]; human): 0.0170; Plateau reached in brain channel during the observed time ([1]; observation up to 24 h): reached plateau; Cplateau,brain (concentration at plateau time of brain channel) ([1]; predicted 90% Css): 8.7886 ng/mL
NC(=O)N1c2ccccc2C=Cc2ccccc21 [Carbamazepine, carbamazepine]	–	28.6749	112.88	31.86	15.8	3.27	1.98	29.41	Kp at 1 μM (in vitro): 0.282; BBB permeability in words (apical to basolateral) ([1]; BBB-on-a-chip, 1 μM): high permeabilities
CN(C)C(=O)C(CCN1CCC(O)(c2ccc(Cl)cc2)CC1)(c1ccccc1)c1ccccc1 [Loperamide, loperamide]	0.0552	33.9736	684.09	37.75	–	20.04	58.46	–	Papp (in vitro): 9.26 ×10⁻⁶ cm/s; tplateau,brain (plateau time for brain channel) ([1]; human): 180.32 h; BBB permeability in words (basolateral to apical) [2]: high permeability
CCc1nn(CCCN2CCN(c3cccc(Cl)c3)CC2)c(=O)n1CCOc1ccccc1 [Nefazodone, nefazodone]	–	13.8908	161.89	15.43	3.84	37.79	9.01	340.10	Kp at 1 μM (in vitro): 0.0953
CC[C@]1(O)C[C@H]2CN(CCc3c([nH]c4ccccc34)[C@@](C(=O)OC)(c3cc4c(cc3OC)N(C=O)[C@H]3[C@@](O)(C(=O)OC)[C@H](OC(C)=O)[C@]5(CC)C=CCN6CC[C@]43[C@@H]65)C2)C1 [Vincristine, vincristine]	0.0821	–	626.20	–	–	–	2.99	–	Plateau reached in brain channel during the observed time ([1]; observation up to 24 h): reached plateau
